From patent US8653023B1, “Dual beneficial effect of dopamine enhancing and neuroprotective actions of PKC delta inhibitors for treatment of Parkinson's disease” (Iowa State University Research Foundation, Inc., priority 2006, dated 2014)
Where two headings read alike, the source gives them in different places. * marks the point of attachment. Cbz = O=C(OCc1ccccc1)*; CH2F = FC*

Experiments:
[1] = system: dopaminergic neuronal cells; test: 6-OHDA-induced DNA fragmentation (genomic DNA fragmentation assay); assay type: cell-based
Source text: (§1) The ability of a PKCd inhibitor to decrease PKCd activity, for example, neurodegeneration or apoptotic activity, can be assessed using standard techniques known to one skilled in the art, including commercially available assays. These include apoptotic DNA Ladder assays, Cell Death Detection ELISA^PLUS (from Roche Applied Sciences), Caspase-3 Activity Assay^PLUS (from Roche Applied Sciences), terminal deoxynucleotidyl transferase-mediated dUTP [deoxy-uridine triphosphate] nick end labeling (TUNEL) assays. DNA-binding dyes or stains such as […] or DAPI or propidium iodide may be used to assess nuclear morphology and DNA damage. Kaul S, Kanthasamy A, Kitazawa M, Anantharam V, Kanthasamy A G, Caspase-3 dependent proteolytic activation of protein kinase C delta mediates and regulates 1-methyl-4-phenylpyridinium (MPP^+)-induced apoptotic cell death in dopaminergic cells: relevance to oxidative stress in dopaminergic degeneration. Eur J Neurosci. 2003 September; 18(6):1387-401.

[2] = system: dopaminergic neuronal cells; test: MPP+ induced DNA fragmentation (genomic DNA fragmentation assay); assay type: cell-based
Source text: as §1

With “N-benzyloxycarbonyl-Asp(OMe)-Ile-Pro-Asp(OMe)-FMK (Cbz-D(OMe)IPD(OMe)-CH2F; SMILES CC[C@H](C)[C@H](NC(=O)[C@H](CC(=O)OC)NC(=O)OCc1ccccc1)C(=O)N1CCC[C@H]1C(=O)N[C@@H](CC(=O)OC)C(=O)CF; listed as Homo sapiens)” the “6-OHDA-induced DNA fragmentation” value [1] was “effectively blocked”, the “6-OHDA-induced DNA fragmentation” value ([1]; concentration as low as 3 μM) was “almost completely inhibits” and the “MPP+ induced DNA fragmentation” value [2] was “inhibited”.
